As usually defined, the TGI is the concentration at which net growth stops. High values mean less potent growth arrest, low ones more potent growth arrest.

This is an account of results in PubChem BioAssay (NCI).

Some test systems named below: T-47D breast; SNB-19 CNS; OVCAR-5 ovarian; EKVX NSCLC; HT29 colon; SF-268 CNS; HL-60(TB) leukemia; NCI-H460 lung; U251 CNS; UACC-62 melanoma.
Common to all, as to assay: DTP human tumour cell line panel, 48 h

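Following 48 hours of exposure in 96-well plates, responses at five concentrations were used to interpolate endpoints linearly. At the TGI there is no net growth.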 Some results are limits rather than exact numbers.

Regarding `Cc1[nH]c(=O)nc(NCCNCCO)c1C(=O)Nc1cccc2cc3ccccc3cc12`, the TGI with T-47D breast, in the test with SNB-19 CNS, in the test with OVCAR-5 ovarian, with EKVX NSCLC, with HT29 colon and with SF-268 CNS was over 100 µM each time. The concentration for total growth inhibition (TGI) in the test on HL-60(TB) leukemia, in the test on NCI-H460 lung, in the test with U251 CNS and in the test on UACC-62 melanoma was over 100 µM each time.

Regarding `O=[N+]([O-])c1ccc(NC(=S)N=Nc2c(O)[nH]c3ccc([N+](=O)[O-])cc23)cc1`, the TGI was 63.1 µM with T-47D breast; 69.3 µM with SNB-19 CNS; 68 µM in the test with OVCAR-5 ovarian; 63.6 µM with EKVX NSCLC; 65.6 µM with HT29 colon; 72.4 µM in the test on SF-268 CNS. Moreover, the TGI stood at 73.1 µM in the test on HL-60(TB) leukemia, 41.9 µM with NCI-H460 lung, 50.8 µM in the test on U251 CNS and 49.1 µM with UACC-62 melanoma.

On to `COc1ccccc1C1Nn2c(nc3ccccc3c2=O)N1c1ccc(C)cc1` (stereo not given), for which the total growth inhibition concentration (TGI) was determined as 21 µM in the test on T-47D breast; 21.2 µM in the test with SNB-19 CNS; 26.6 µM in the test with OVCAR-5 ovarian; 34.6 µM in the test on EKVX NSCLC; 29.5 µM in the test with HT29 colon; 25.1 µM with SF-268 CNS. Also, the TGI with HL-60(TB) leukemia was determined as 49.1 µM; in the test on NCI-H460 lung, 16.3 µM; in the test on U251 CNS it was 6.68 µM; in the test on UACC-62 melanoma it was 22.2 µM.

Turning to `CC1C(NNc2ccccc2)Oc2cc3c(cc2C1c1ccccc1O)OCO3` (stereo not given), the concentration for total growth inhibition (TGI) in the test with T-47D breast was 16.2 µM; in the test on SNB-19 CNS it was 27.4 µM; in the test on OVCAR-5 ovarian it was 19.1 µM; in the test with EKVX NSCLC it was 23.3 µM; with HT29 colon it was 19.4 µM; in the test on SF-268 CNS, 32.6 µM. Further, the TGI in the test with HL-60(TB) leukemia worked out at 15.1 µM; in the test on NCI-H460 lung it was 18.5 µM; with U251 CNS it was 22.4 µM; with UACC-62 melanoma, 17.2 µM.

`Cn1c(=O)c2c(nc3n(Cc4ccccc4)c(=O)c(NCCCBr)cn23)n(C)c1=O`: the TGI in the test with T-47D breast, in the test with SNB-19 CNS, in the test on OVCAR-5 ovarian, in the test with EKVX NSCLC, in the test on HT29 colon and in the test with SF-268 CNS was over 100 µM in each case. The TGI in the test on HL-60(TB) leukemia, in the test on NCI-H460 lung, in the test on U251 CNS and in the test with UACC-62 melanoma was over 100 µM each time.

Take `Cc1cc(S(=O)(=O)Nc2n[nH]c(-c3ccccn3)n2)c(S)cc1Cl`: the TGI in the test with T-47D breast is 56.2 µM; in the test on SNB-19 CNS, 60.6 µM; in the test with OVCAR-5 ovarian it was 45.4 µM; in the test with EKVX NSCLC, 92 µM; in the test with HT29 colon it was 41.7 µM; in the test on SF-268 CNS, 88.3 µM. Moreover, the TGI with HL-60(TB) leukemia came out at 41.2 µM; in the test on NCI-H460 lung, 27.7 µM; in the test on U251 CNS, 67.3 µM; in the test on UACC-62 melanoma, 34.8 µM.

Take `C1=C2C3=[N+](CCCCC3)CC2Cc2ccsc21` (stereo not given): the TGI in the test with T-47D breast, with SNB-19 CNS, in the test on OVCAR-5 ovarian, with EKVX NSCLC, in the test with HT29 colon and in the test with SF-268 CNS was over 100 µM in each case. In addition, the concentration for total growth inhibition (TGI) in the test with HL-60(TB) leukemia, with NCI-H460 lung, in the test on U251 CNS and in the test on UACC-62 melanoma was over 100 µM each time.

As to `CC(C)C(=O)C(C)(C)CCc1ccccn1`, the TGI in the test with T-47D breast, in the test with SNB-19 CNS, with OVCAR-5 ovarian, in the test with EKVX NSCLC, in the test with HT29 colon and in the test with SF-268 CNS was over 100 µM in each case. For the same compound, the concentration for total growth inhibition (TGI) with HL-60(TB) leukemia, in the test on NCI-H460 lung, with U251 CNS and in the test on UACC-62 melanoma was over 100 µM in each case.

For `COC(=O)C1C(C(=O)OC)C2(OC(c3ccc(Cl)cc3)=CC2=O)C12OC(c1ccc(Cl)cc1)=CC2=O` (stereo not given), the concentration for total growth inhibition (TGI) with T-47D breast was 63.3 µM; in the test with SNB-19 CNS, over 100 µM; in the test with OVCAR-5 ovarian, 95.1 µM; in the test on EKVX NSCLC it was 54.9 µM; in the test on HT29 colon it was 45.2 µM; in the test with SF-268 CNS it was 73.5 µM. Moreover, the concentration for total growth inhibition (TGI) in the test on HL-60(TB) leukemia is 8.29 µM; with NCI-H460 lung it was 41.5 µM; in the test on U251 CNS, over 100 µM; with UACC-62 melanoma, 32.8 µM.

On to `CCOc1ccc(Nc2nc(N)nc(N)c2N)cc1`, for which the TGI in the test on T-47D breast was 54.3 µM; in the test with SNB-19 CNS, 93.4 µM; in the test with OVCAR-5 ovarian, over 100 µM; in the test with EKVX NSCLC it was over 100 µM; in the test with HT29 colon it was 33.3 µM; in the test with SF-268 CNS, 31.1 µM. For the same compound, the TGI in the test with HL-60(TB) leukemia is over 100 µM; with NCI-H460 lung, 98 µM; in the test with U251 CNS, 66 µM; with UACC-62 melanoma, over 100 µM.

Consider `C/C=C(/C)C(=O)OC1CC(C)[C@H]2CC(=O)C(C)=C2CC1C(C)(C)OC(C)=O` (stereo not given in full), for which the total growth inhibition concentration (TGI) in the test on T-47D breast was 46.2 µM; with SNB-19 CNS, over 100 µM; in the test on OVCAR-5 ovarian, over 100 µM; in the test on EKVX NSCLC it was over 100 µM; in the test on HT29 colon, over 100 µM; in the test with SF-268 CNS, over 100 µM. Besides, the total growth inhibition concentration (TGI) was 49.8 µM with HL-60(TB) leukemia, 42.8 µM in the test with NCI-H460 lung, over 100 µM in the test with U251 CNS and 48.6 µM with UACC-62 melanoma.

For `O=S(=O)(c1cc(Cl)ccc1Cl)n1ccnc1`, the total growth inhibition concentration (TGI) with T-47D breast, with SNB-19 CNS, in the test with OVCAR-5 ovarian, with EKVX NSCLC, with HT29 colon and in the test with SF-268 CNS was over 100 µM each time. Moreover, the concentration for total growth inhibition (TGI) was 88 µM in the test with HL-60(TB) leukemia, over 100 µM with NCI-H460 lung, over 100 µM in the test with U251 CNS and over 100 µM in the test on UACC-62 melanoma.

Regarding `CCCCC1=C(C(=O)N2CCOCC2)C2(OCCO2)C1=O`, the TGI with T-47D breast was over 100 µM; in the test on SNB-19 CNS it was 43.2 µM; in the test with OVCAR-5 ovarian, 46.8 µM; in the test with EKVX NSCLC, over 100 µM; with HT29 colon, 45.1 µM; with SF-268 CNS it was 86.7 µM. In addition, the TGI in the test with HL-60(TB) leukemia is 61.2 µM; in the test on NCI-H460 lung, over 100 µM; in the test with U251 CNS, 88.3 µM; in the test on UACC-62 melanoma it was 94.8 µM.
